Results from patent publication US7582649B2, “Hydroxy alkyl substituted 1,3,8-triazaspiro[4.5]decan-4-one derivatives useful for the treatment of ORL-1 receptor mediated disorders” (Janssen Pharmaceutica, NV, priority 2002, dated 2009).

Tests used:
[1] = target: mu opioid receptor (Homo sapiens, UniProt P35372); assay: Filtration binding assay: mu opioid receptor
[2] = target: kappa opioid receptor (Homo sapiens, UniProt P41145); assay: Filtration binding assay: kappa opioid receptor
Chain of kappa opioid receptor (P41145 whole entry): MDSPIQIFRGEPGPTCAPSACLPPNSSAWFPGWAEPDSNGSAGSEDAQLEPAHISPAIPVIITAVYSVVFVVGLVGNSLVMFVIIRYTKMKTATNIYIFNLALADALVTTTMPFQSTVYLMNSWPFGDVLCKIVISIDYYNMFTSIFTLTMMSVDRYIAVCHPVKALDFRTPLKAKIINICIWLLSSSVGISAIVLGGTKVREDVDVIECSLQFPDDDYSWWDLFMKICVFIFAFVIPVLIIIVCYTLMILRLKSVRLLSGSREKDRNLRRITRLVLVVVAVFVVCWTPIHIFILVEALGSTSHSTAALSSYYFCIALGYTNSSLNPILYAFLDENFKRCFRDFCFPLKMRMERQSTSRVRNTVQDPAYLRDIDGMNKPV

Chain of mu opioid receptor (P35372 whole entry): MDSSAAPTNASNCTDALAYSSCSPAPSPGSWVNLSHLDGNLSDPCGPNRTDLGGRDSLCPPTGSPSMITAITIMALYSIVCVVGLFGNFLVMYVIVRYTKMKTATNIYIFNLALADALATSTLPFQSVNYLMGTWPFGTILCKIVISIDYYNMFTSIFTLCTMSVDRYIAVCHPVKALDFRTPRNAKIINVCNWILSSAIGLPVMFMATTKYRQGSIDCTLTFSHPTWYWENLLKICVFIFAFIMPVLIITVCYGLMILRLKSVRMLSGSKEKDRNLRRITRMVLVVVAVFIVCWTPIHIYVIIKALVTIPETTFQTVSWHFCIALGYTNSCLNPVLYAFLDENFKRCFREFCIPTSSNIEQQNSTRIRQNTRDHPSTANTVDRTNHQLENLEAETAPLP

Row | SMILES | IC50 [1] [nM] | IC50 [2] [nM]
1 | O=C1N(C[C@@H](O)CN2CCN(c3cccc(C(F)(F)F)c3)CC2)CN(c2ccc(F)cc2)C12CCN(C1Cc3cccc4cccc1c34)CC2 (mixture of isomers) [compound 333] | 240 | 390
2 | O=C1N(C[C@@H](O)CN2CCN(C(c3ccccc3)c3ccc(Cl)cc3)CC2)CN(c2ccc(F)cc2)C12CCN(C1Cc3cccc4cccc1c34)CC2 (mixture of isomers) [compound 337] | 550 | 250
3 | CCCCN(CCCC)CCCNC[C@H](O)CN1CN(c2ccc(F)cc2)C2(CCN(C3Cc4cccc5cccc3c45)CC2)C1=O (mixture of isomers) [compound 338] | 740 | 140
4 | COc1cc(OC)c(CNC[C@H](O)CN2CN(c3ccc(F)cc3)C3(CCN(C4Cc5cccc6cccc4c56)CC3)C2=O)c(OC)c1 (mixture of isomers) [compound 367] | 1860 | 360
5 | O=C1N(C[C@@H](O)CNCCc2ccccc2)CN(c2ccc(F)cc2)C12CCN(CC1CCCCCCC1)CC2 [Compound #11] | 820 | 290
6 | O=C1N(C[C@@H](O)CNCc2ccc(C(F)(F)F)cc2)CN(c2ccc(F)cc2)C12CCN(CC1CCCCCCC1)CC2 [Compound #29] | 5410 | 410
7 | O=C1N(C[C@@H](O)CNCc2cccc(C(F)(F)F)c2)CN(c2ccc(F)cc2)C12CCN(CC1CCCCCCC1)CC2 [Compound #33] | > 10000 | 1160
8 | COc1cc(CNC[C@H](O)CN2CN(c3ccc(F)cc3)C3(CCN(CC4CCCCCCC4)CC3)C2=O)cc(OC)c1OC [Compound #43] | 540 | 320
9 | O=C1N(C[C@@H](O)CNCc2ccccc2Br)CN(c2ccc(F)cc2)C12CCN(CC1CCCCCCC1)CC2 [Compound #44] | 1130 | 160
10 | O=C1N(C[C@@H](O)CN2CCc3ccccc3C2)CN(c2ccc(F)cc2)C12CCN(CC1CCCCCCC1)CC2 [Compound #72] | 1840 | 790
11 | CCCCN(Cc1ccccc1)C[C@H](O)CN1CN(c2ccc(F)cc2)C2(CCN(Cc3c(C)c(C)c(C)c(C)c3C)CC2)C1=O [Compound #280, 3-[3-(Benzyl-butyl-amino)-2-(S)-hydroxy-propyl]-1-(4-fluoro-phenyl)-8-pentamethylphenylmethyl-1,3,8-triaza-spiro[4.5]decan-4-one] | 2520 | 1080
12 | Cc1cccc2cccc(CN3CCC4(CC3)C(=O)N(C[C@H](O)CN(C)C)CN4c3ccc(F)cc3)c12 [Compound #441, 3-(3-Dimethylamino-2-(R)-hydroxy-propyl)-1-(4-fluoro-phenyl)-8-(8-methyl-naphthalen-1-ylmethyl)-1,3,8-triaza-spiro[4.5]decan-4-one] | > 10000 | > 10000
13 | CCCCN(Cc1ccccc1)C[C@H](O)CN1CN(c2ccc(F)cc2)C2(CCN(Cc3c(Cl)cccc3C(F)(F)F)CC2)C1=O [Compound #456, 3-[3-(Benzyl-butyl-amino)-2-(S)-hydroxy-propyl]-8-(2-chloro-6-trifluoromethyl-benzyl)-1-(4-fluoro-phenyl)-1,3,8-triaza-spiro[4.5]decan-4-one] | > 10000 | > 10000
14 | O=C1N(C[C@@H](O)CNc2ccc(-c3ccccc3)cc2)CN(c2ccc(F)cc2)C12CCN(CC1CCCCCCC1)CC2 [compound 9] | 940 | 1400
15 | O=C1N(C[C@@H](O)CNCc2cc(F)ccc2F)CN(c2ccc(F)cc2)C12CCN(CC1CCCCCCC1)CC2 [compound 12] | 520 | 200
16 | O=C1N(C[C@@H](O)CNc2ccc(Br)cn2)CN(c2ccc(F)cc2)C12CCN(CC1CCCCCCC1)CC2 [compound 13] | 620 | 120
17 | COc1ccccc1CNC[C@H](O)CN1CN(c2ccc(F)cc2)C2(CCN(CC3CCCCCCC3)CC2)C1=O [compound 14] | 1200 | 400
18 | O=C1N(C[C@@H](O)CNCc2ccc(Br)cc2)CN(c2ccc(F)cc2)C12CCN(CC1CCCCCCC1)CC2 [compound 15] | 850 | 330

Row | SMILES | IC50 [1] [nM] | IC50 [2] [nM]
19 | COc1ccc(CNC[C@H](O)CN2CN(c3ccc(F)cc3)C3(CCN(CC4CCCCCCC4)CC3)C2=O)cc1OC [compound 22] | 600 | 300
20 | O=C1N(C[C@@H](O)CNCc2ccc([N+](=O)[O-])cc2)CN(c2ccc(F)cc2)C12CCN(CC1CCCCCCC1)CC2 [compound 23] | 9200 | 490
21 | O=C1N(C[C@@H](O)CNCCc2cccs2)CN(c2ccc(F)cc2)C12CCN(CC1CCCCCCC1)CC2 [compound 26] | 790 | 290
22 | O=C1N(C[C@@H](O)CNCc2ccc(Cl)cc2Cl)CN(c2ccc(F)cc2)C12CCN(CC1CCCCCCC1)CC2 [compound 31] | 2930 | 280
23 | O=C1N(C[C@@H](O)CN(CCc2ccccc2)Cc2ccccc2)CN(c2ccc(F)cc2)C12CCN(CC1CCCCCCC1)CC2 [compound 65] | 580 | 510
24 | CCOc1ccccc1NC[C@H](O)CN1CN(c2ccc(F)cc2)C2(CCN(CC3CCCCCCC3)CC2)C1=O [compound 281] | 580 | 960
25 | O=C1N(C[C@@H](O)CNc2ccc(C3CCCCC3)cc2)CN(c2ccc(F)cc2)C12CCN(CC1CCCCCCC1)CC2 [compound 285] | 4780 | 2690
26 | O=C1N(C[C@@H](O)CN(Cc2ccccc2)C[C@@H]2CCC[C@@H]2O)CN(c2ccc(F)cc2)C12CCN(CC1CCCCCCC1)CC2 [compound 289] | 1390 | 190
27 | O=C1N(C[C@@H](O)CN(Cc2ccccc2)C[C@@H]2CCCCC[C@@H]2O)CN(c2ccc(F)cc2)C12CCN(CC1CCCCCCC1)CC2 [compound 291] | 4560 | 570
28 | COc1ccc(CCNC[C@H](O)CN2CN(c3ccc(F)cc3)C3(CCN(Cc4cccc5cccc(C)c45)CC3)C2=O)cc1OC [compound 386] | > 10000 | 3690
29 | Cc1cccc2cccc(CN3CCC4(CC3)C(=O)N(C[C@H](O)CN(Cc3ccccc3)C(C)(C)C)CN4c3ccc(F)cc3)c12 [compound 389] | 7060 | 9840
30 | COc1ccc(CCN(C)C[C@@H](O)CN2CN(c3ccc(F)cc3)C3(CCN(Cc4cccc5cccc(C)c45)CC3)C2=O)cc1OC [compound 391] | > 10000 | 2180
31 | COc1ccc(CNC[C@@H](O)CN2CN(c3ccc(F)cc3)C3(CCN(Cc4cccc5cccc(C)c45)CC3)C2=O)cc1 [compound 392] | > 10000 | 1390
32 | Cc1cccc2cccc(CN3CCC4(CC3)C(=O)N(C[C@H](O)CNc3ccncc3)CN4c3ccc(F)cc3)c12 [compound 393] | > 10000 | 1040
33 | Cc1cccc2cccc(CN3CCC4(CC3)C(=O)N(C[C@@H](O)CN(Cc3ccccc3)C(C)(C)C)CN4c3ccc(F)cc3)c12 [compound 395] | 1100 | > 10000
34 | Cc1cccc2cccc(CN3CCC4(CC3)C(=O)N(C[C@@H](O)CNCCN3CCOCC3)CN4c3ccc(F)cc3)c12 [compound 396] | > 10000 | 810
35 | COc1ccc(CCN(C)C[C@H](O)CN2CN(c3ccc(F)cc3)C3(CCN(Cc4cccc5cccc(C)c45)CC3)C2=O)cc1OC [compound 399] | > 10000 | 750
36 | O=C(O)c1ccc(CNC[C@H](O)CN2CN(c3ccc(F)cc3)C3(CCN(CC4CCCCCCC4)CC3)C2=O)cc1 [compound 452] | 570 | 1520
